Experimental data published in ChEMBL document CHEMBL1201862, “PubChem BioAssay data set” (2004).
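Dose response: 5 concentrations. Exposure: 48 h. Format: 96-well plates. Endpoint: linear interpolation; highest concentration if not reached. Abbreviation: GI50, concentration required for 50% inhibition of growth.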 Active and inactive are the calls of the source. Cut-off read from the data, not from the text of the source: active = GI50 up to about 1.1 µM and inactive = higher.

Columns and labels:
Assay in all cases: DTP human tumour cell line panel, 48 h
A498 = system: A498
A549 = system: A549
CAKI-1 = system: CAKI-1
CCRF-CEM = system: CCRF-CEM
COLO 205 = system: COLO 205
DLD-1 = system: DLD-1
DMS-114 = system: DMS-114
DMS-273 = system: DMS-273
EKVX = system: EKVX
HCC 2998 = system: HCC 2998
HCT-116 = system: HCT-116
HCT-15 = system: HCT-15
HL-60 = system: HL-60
HOP-18 = system: HOP-18
HOP-62 = system: HOP-62
HOP-92 = system: HOP-92
HT-29 = system: HT-29
IGROV-1 = system: IGROV-1
K562 = system: K562
KM-20L2 = system: KM-20L2
KM12 = system: KM12
LOX IMVI = system: LOX IMVI
M19-MEL = system: M19-MEL
MCF7 = system: MCF7
MOLT-4 = system: MOLT-4
Malme-3M = system: Malme-3M
NCI-H226 = system: NCI-H226
NCI-H23 = system: NCI-H23
NCI-H460 = system: NCI-H460
NCI-H522 = system: NCI-H522
NCI/ADR-RES = system: NCI/ADR-RES
OVCAR-3 = system: OVCAR-3
OVCAR-4 = system: OVCAR-4
OVCAR-5 = system: OVCAR-5
OVCAR-8 = system: OVCAR-8
RPMI-8226 = system: RPMI-8226
RXF 393 = system: RXF 393
SF-268 = system: SF-268
SF-295 = system: SF-295
SF-539 = system: SF-539
SK-MEL-28 = system: SK-MEL-28
SK-MEL-2 = system: SK-MEL-2
SK-MEL-5 = system: SK-MEL-5
SK-OV-3 = system: SK-OV-3
SN12C = system: SN12C
SNB-19 = system: SNB-19
SNB-75 = system: SNB-75
SNB-78 = system: SNB-78
SW-620 = system: SW-620
U-251 = system: U-251
UACC-257 = system: UACC-257
UACC-62 = system: UACC-62
UO-31 = system: UO-31
XF498 = system: XF498
786-0 = system: 786-0
ACHN = system: ACHN
LXFL 529 = system: LXFL 529
M14 = system: M14
SR = system: SR
TK-10 = system: TK-10
BT-549 = system: BT-549
DU-145 = system: DU-145
Hs-578T = system: Hs-578T
MDA-MB-231 = system: MDA-MB-231
MDA-MB-435 = system: MDA-MB-435
MDA-N = system: MDA-N
PC-3 = system: PC-3
T47D = system: T47D

## CC1C(=O)OC2CC[N+]3(CC(=O)c4ccc(Br)cc4)CC=C(COC(=O)C(C)(O)C1(C)O)C23 (configuration not stated)
A498
  GI50: > 375 µM (inactive)
A549
  GI50: > 375 µM (inactive)
CAKI-1
  GI50: > 375 µM (inactive)
CCRF-CEM
  GI50: > 375 µM (inactive)
COLO 205
  GI50: > 375 µM (inactive)
DLD-1
  GI50: > 375 µM (inactive)
DMS-114
  GI50: > 375 µM (inactive)
DMS-273
  GI50: > 128 µM (inactive)
EKVX
  GI50: > 375 µM (inactive)
HCC 2998
  GI50: > 375 µM (inactive)
HCT-116
  GI50: > 375 µM (inactive)
HCT-15
  GI50: > 375 µM
HL-60
  GI50: 361 µM (inactive)
HOP-18
  GI50: > 375 µM (inactive)
HOP-62
  GI50: > 375 µM (inactive)
HOP-92
  GI50: > 299 µM (inactive)
HT-29
  GI50: > 375 µM (inactive)
IGROV-1
  GI50: > 375 µM (inactive)
K562
  GI50: > 375 µM (inactive)
KM-20L2
  GI50: > 37.5 µM (inactive)
KM12
  GI50: > 375 µM (inactive)
LOX IMVI
  GI50: > 375 µM (inactive)
M19-MEL
  GI50: > 375 µM (inactive)
MCF7
  GI50: > 375 µM (inactive)
MOLT-4
  GI50: > 375 µM (inactive)
Malme-3M
  GI50: > 375 µM (inactive)
NCI-H226
  GI50: > 375 µM (inactive)
NCI-H23
  GI50: > 375 µM (inactive)
NCI-H460
  GI50: > 375 µM (inactive)
NCI-H522
  GI50: > 375 µM (inactive)
NCI/ADR-RES
  GI50: > 375 µM (inactive)
OVCAR-3
  GI50: > 375 µM (inactive)
OVCAR-4
  GI50: > 375 µM (inactive)
OVCAR-5
  GI50: > 375 µM (inactive)
OVCAR-8
  GI50: 37.5 µM (inactive)
RPMI-8226
  GI50: > 375 µM (inactive)
RXF 393
  GI50: > 375 µM (inactive)
SF-268
  GI50: > 375 µM (inactive)
SF-295
  GI50: > 375 µM (inactive)
SF-539
  GI50: > 375 µM (inactive)
SK-MEL-28
  GI50: > 375 µM (inactive)
SK-MEL-2
  GI50: > 375 µM (inactive)
SK-MEL-5
  GI50: > 375 µM (inactive)
SK-OV-3
  GI50: > 375 µM (inactive)
SN12C
  GI50: > 375 µM (inactive)
SNB-19
  GI50: > 375 µM (inactive)
SNB-75
  GI50: > 375 µM (inactive)
SNB-78
  GI50: 211 µM (inactive)
SW-620
  GI50: > 375 µM (inactive)
U-251
  GI50: > 375 µM (inactive)
UACC-257
  GI50: > 375 µM (inactive)
UACC-62
  GI50: > 375 µM (inactive)
UO-31
  GI50: > 375 µM (inactive)
XF498
  GI50: 259 µM (inactive)

## O=C1c2ccccc2C(=O)c2sc(Nc3ccc(Cl)cc3)nc21
786-0
  GI50: 1.6 µM (inactive)
A498
  GI50: 16.1 µM (inactive)
A549
  GI50: 8.63 µM (inactive)
ACHN
  GI50: 1.57 µM (inactive)
CAKI-1
  GI50: 1.99 µM (inactive)
CCRF-CEM
  GI50: 1.32 µM (inactive)
COLO 205
  GI50: 7.16 µM (inactive)
DLD-1
  GI50: 1.78 µM (inactive)
DMS-114
  GI50: 1.82 µM (inactive)
DMS-273
  GI50: 1.97 µM (inactive)
EKVX
  GI50: 5.77 µM (inactive)
HCC 2998
  GI50: 4.32 µM (inactive)
HCT-116
  GI50: 1.64 µM (inactive)
HCT-15
  GI50: 1.8 µM
HL-60
  GI50: 0.1 µM (active)
HOP-18
  GI50: 2.24 µM (inactive)
HOP-62
  GI50: 4.68 µM (inactive)
HT-29
  GI50: 4.15 µM (inactive)
IGROV-1
  GI50: 2.44 µM (inactive)
K562
  GI50: 1.96 µM (inactive)
KM-20L2
  GI50: 13.5 µM (inactive)
KM12
  GI50: 2.04 µM (inactive)
LOX IMVI
  GI50: 1.59 µM (inactive)
LXFL 529
  GI50: 1.69 µM (inactive)
M14
  GI50: 2.14 µM (inactive)
M19-MEL
  GI50: 0.388 µM (active)
MOLT-4
  GI50: 0.762 µM (active)
Malme-3M
  GI50: 1.96 µM (inactive)
NCI-H226
  GI50: 7.53 µM (inactive)
NCI-H23
  GI50: 1.55 µM (inactive)
NCI-H460
  GI50: 2.82 µM (inactive)
NCI-H522
  GI50: 1.61 µM (inactive)
OVCAR-3
  GI50: 1.51 µM (inactive)
OVCAR-4
  GI50: 1.65 µM (inactive)
OVCAR-5
  GI50: 5.13 µM (inactive)
OVCAR-8
  GI50: 1.75 µM (inactive)
RPMI-8226
  GI50: 1.38 µM (inactive)
RXF 393
  GI50: 1.53 µM (inactive)
SF-268
  GI50: 2.4 µM (inactive)
SF-295
  GI50: 5.53 µM (inactive)
SF-539
  GI50: 4.55 µM (inactive)
SK-MEL-28
  GI50: 1.66 µM (inactive)
SK-MEL-2
  GI50: 3.67 µM (inactive)
SK-MEL-5
  GI50: 1.8 µM (inactive)
SK-OV-3
  GI50: 18.9 µM (inactive)
SN12C
  GI50: 1.85 µM (inactive)
SNB-19
  GI50: 5.73 µM (inactive)
SNB-75
  GI50: 8.41 µM (inactive)
SNB-78
  GI50: 3.49 µM (inactive)
SR
  GI50: 1.86 µM (inactive)
SW-620
  GI50: 1.09 µM (active)
TK-10
  GI50: 5.89 µM (inactive)
U-251
  GI50: 1.62 µM (inactive)
UACC-257
  GI50: 1.75 µM (inactive)
UACC-62
  GI50: 1.85 µM (inactive)
UO-31
  GI50: 3.35 µM (inactive)
XF498
  GI50: 2.16 µM (inactive)

## N[C@H](C(=O)O)[C@H]1ON=C(Cl)[C@@H]1O
786-0
  GI50: 6.61 µM (inactive)
A549
  GI50: 1.56 µM (inactive)
ACHN
  GI50: 10.7 µM (inactive)
BT-549
  GI50: 3.97 µM (inactive)
CAKI-1
  GI50: 1.77 µM (inactive)
CCRF-CEM
  GI50: 0.966 µM (active)
COLO 205
  GI50: 0.59 µM (active)
DLD-1
  GI50: 1.09 µM (active)
DMS-114
  GI50: 6.61 µM (inactive)
DMS-273
  GI50: 1.16 µM (inactive)
DU-145
  GI50: 27.4 µM (inactive)
EKVX
  GI50: 5.11 µM (inactive)
HCC 2998
  GI50: 1.15 µM (inactive)
HCT-116
  GI50: 2.36 µM (inactive)
HCT-15
  GI50: 1.21 µM
HL-60
  GI50: 3.46 µM (inactive)
HOP-18
  GI50: > 360 µM (inactive)
HOP-62
  GI50: 2.13 µM (inactive)
HOP-92
  GI50: 27.4 µM (inactive)
HT-29
  GI50: 0.286 µM (active)
Hs-578T
  GI50: 8.65 µM (inactive)
IGROV-1
  GI50: 2.84 µM (inactive)
K562
  GI50: 1.63 µM (inactive)
KM-20L2
  GI50: 0.343 µM (active)
KM12
  GI50: 0.612 µM (active)
LOX IMVI
  GI50: 8.71 µM (inactive)
M14
  GI50: 6.03 µM (inactive)
M19-MEL
  GI50: 1.87 µM (inactive)
MCF7
  GI50: 2.6 µM (inactive)
MDA-MB-231
  GI50: 12.2 µM (inactive)
MDA-MB-435
  GI50: 3.56 µM (inactive)
MDA-N
  GI50: 2.95 µM (inactive)
MOLT-4
  GI50: 1.38 µM (inactive)
Malme-3M
  GI50: 24.1 µM (inactive)
NCI-H226
  GI50: 45.1 µM (inactive)
NCI-H23
  GI50: 3.52 µM (inactive)
NCI-H460
  GI50: 2.76 µM (inactive)
NCI-H522
  GI50: 0.942 µM (active)
NCI/ADR-RES
  GI50: 6.49 µM (inactive)
OVCAR-3
  GI50: 18.5 µM (inactive)
OVCAR-4
  GI50: 29.3 µM (inactive)
OVCAR-5
  GI50: 5.6 µM (inactive)
OVCAR-8
  GI50: 2.95 µM (inactive)
PC-3
  GI50: 7.03 µM (inactive)
RPMI-8226
  GI50: 2.43 µM (inactive)
RXF 393
  GI50: 58.3 µM (inactive)
SF-268
  GI50: 1.5 µM (inactive)
SF-295
  GI50: 5.97 µM (inactive)
SF-539
  GI50: 1.28 µM (inactive)
SK-MEL-28
  GI50: 3.24 µM (inactive)
SK-MEL-2
  GI50: 56.1 µM (inactive)
SK-MEL-5
  GI50: 0.929 µM (active)
SK-OV-3
  GI50: 14.3 µM (inactive)
SN12C
  GI50: 4.63 µM (inactive)
SNB-19
  GI50: 5.58 µM (inactive)
SNB-75
  GI50: 26.2 µM (inactive)
SNB-78
  GI50: 28.1 µM (inactive)
SR
  GI50: 1.73 µM (inactive)
SW-620
  GI50: 2.16 µM (inactive)
T47D
  GI50: 33.6 µM (inactive)
TK-10
  GI50: > 28.5 µM (inactive)
U-251
  GI50: 3.3 µM (inactive)
UACC-257
  GI50: 14.7 µM (inactive)
UACC-62
  GI50: 3.3 µM (inactive)
UO-31
  GI50: 18.3 µM (inactive)
XF498
  GI50: 59 µM (inactive)
